Assays:
[1] = system: bladder contractions induced by stimulation of the pelvic nerve, peripheral cut end; test: Effect on the bladder contractions induced by stimulation of the pelvic nerve (peripheral cut end); format: in vivo, Male Std-Wistar rats; conditions: 5 mg/kg i.v. (jugular vein), mean±SEM; for Inhibitory rate on the contraction caused by the stimulation of the peripheral cut end, 10 min. / Inhibitory rate on the contraction caused by the stimulation of the peripheral cut end, 20 min.: * p<0.05
Text: (§1) Effect on the bladder contractions induced by stimulation of the pelvic nerve
(§2) Male Std-Wistar rats weighing 250-350 g were used. Under urethane anesthesia (1 g/kg, i.p.), both ureters were tied and cut at the side of kidney after a mid line incision of the abdomen. When the peripheral end of the pelvic nerve was stimulated, one side of the pelvic nerve was cut. When the central cut end of the nerve was stimulated, one side of the pelvic nerve was cut like in the peripheral end stimulation after both the hypogastric nerves were cut. Then, the bladder was exposed, the cannula connected to a syringe and a pressure transducer was inserted into the bladder via a small incision at an apex of the dome, and the proximal urethra was then ligated. Fifteen minutes after the operation, warm saline solution of an amount (0.1-0.2 ml) being small enough not to cause rhythmic contraction was infused into the bladder using a syringe. The change of the intravesical pressure was recorded on a recorder via a pressure transducer. The pelvic nerve was stimulated at the peripheral cut end or the central one by a pair of platinum electrodes with pulse of 1 msec duration, 3 v strength and a frequency of 10 Hz (for peripheral) or 5 v strength and a frequency of 20 Hz (for central), for 5 seconds every 2 minutes. Test compounds dissolved in distilled water were injected at a dose of 5 mg/kg via the cannula inserted into the jugular vein.
(§3) Each value in the table is mean±standard error of mean in 3-4 animals.

[2] = system: rhythmic bladder contractions (micturition reflex); test: Inhibitory effect on rhythmic bladder contractions (micturition reflex); format: in vivo, Female Std-Wistar rats; conditions: i.d., rat; for ED50: 2 h, two hours, read-out: ED50, inhibitory effect on contractile frequency; for Potency on frequency of rhythmic bladder contractions relative to inaperisone hydrochloride (Compound A): compared with Compound A
Description: Inhibitory effect on rhythmic bladder contractions (micturition reflex)
The experiment was carried out according to the method of Maggi, C. […] It is generally accepted that the rhythmic bladder contractions evoked by instillation of saline solution into the bladder are mediated via the micturition reflex pathway like that of natural urination.
Female Std-Wistar rats weighing 160-190 g were used in groups of 3-4 animals. Under urethane anesthesia (1 g/kg, s.c.), both ureters were tied and cut at the side of kidney after a mid line incision of the abdomen. A cannula, connected to a syringe and a pressure transducer, was inserted into the bladder via the external urethral orifice and ligated around the proximal urethra. The animal was allowed to stay for about 30 minutes after the operation. The bladder was slowly filled with warm saline solution (0.4-1 ml) by means of a syringe until rhythmic contractions were induced. The change of the intravesical pressure was recorded on a recorder via a pressure transducer. After the rhythmic contractions became constant, test compounds dissolved or suspended in 0.5% aqueous tragacanth solution were administered via the cannula inserted for intraduodenal administration. The effect of each compound on the contractile frequency was investigated every 15 minutes till two hours after the administration.
The inhibitory rate on the contractile frequency (two hours) was expressed as the mean value of the inhibitory rates at an every 15-minute interval for two hours after the administration, which was determined based on the contractile frequency for 15 minutes before the administration.

[3] = system: polysynaptic spinal reflex; test: Inhibitory effect on polysynaptic spinal reflex; format: in vivo, Male Std-Wistar rats; conditions: rat; for Inhibitory effect on spinal reflex compared with Compound A: i.v.; for ED50: iv, read-out: Inhibitory effect on polysynaptic spinal reflex, ID50
Description: Inhibitory effect on polysynaptic spinal reflex
The experiment was performed according to the method of Itoh, et al. [Japan J. Parmacol.,23, 1125 (1982)]. Male Std-Wistar rats weighing 250-350 g were used in groups of 4-6 animals. Under anesthesia with combined i.p. injection of urethane (400 mg/kg) and α-chloralose (50 mg/kg), the rat fixed in a stereotaxic apparatus was clamped at the spine and tibial bane. A concentric needle electrode was inserted into the left gastrocnemius muscle, and the central end of the ipsilateral common peroneal nerve at the same side was supramaximally stimulated by an electrical stimulator (rectangular pulse,0.1 msec,0.1 Hz). Test compounds dissolved in distilled water were injected via a cannula inserted into the right femoral vein, and the evoked electromyogram was periodically recorded (2, 5, 10, 20 and 30 minutes after the injection). […] The results are shown in Table 5 along with the results of Experiments 3 and 5.

exploratory behavior = test: Inhibitory effect on exploratory behavior; format: in vivo, Male Std-Wistar rats; conditions: 500 mg/kg p.o., rat; for Inhibitory rate, exploratory behavior: one hour after administration
Description: Inhibitory effect on exploratory behavior
Male Std-Wistar rats weighing 150-200 g were used in groups of 5 animals. One hour after oral administration of test compounds suspended in 0.5% aqueous tragacanth solution, animals were individually placed in a test cage (23×35×30 cm) on an Animex activity meter (Farad Co., Sweden). Immediately thereafter, locomotor counting was started and lasted for three minutes. The mean value of the exploratory behavior (count/3 minutes) in the test compound-treated groups were determined, and then inhibitory effect of each test compound was calculated as compared with that of the control group (0.5% aqueous tragacanth solution-treated group). The results are shown in Table 5 along with the results of Experiments 4 and 5.

[4] = system: rhythmic bladder contractions (micturition reflex); test: Inhibitory effect on rhythmic bladder contractions (micturition reflex); format: in vivo, Female Std-Wistar rats; conditions: judged from Experiments 1, 3, 4 and 5
in vivo = conditions: in vivo, po; mouse; 7 days; read-out: Acute toxicity LD50
Text: (§4) Male ddY mice weighing 18-25 g were used in groups of 5-15 animals. Test compounds suspended in 0.5% aqueous tragacanth solution were given orally, and the mortality was investigated for 7 days following administration.

Male ddY mice = test: in vivo; conditions: p.o.; mouse
Text: as §4

[5] = system: bladder contractions induced by stimulation of the pelvic nerve, central cut end; test: Effect on the bladder contractions induced by stimulation of the pelvic nerve (central cut end); format: in vivo, Male Std-Wistar rats; conditions: for Inhibitory rate on the contraction caused by the stimulation of the central cut end, 2 min. / Inhibitory rate on the contraction caused by the stimulation of the central cut end, 4 min. / Inhibitory rate on the contraction caused by the stimulation of the central cut end, 10 min. / Inhibitory rate on the contraction caused by the stimulation of the central cut end, 20 min.: 5 mg/kg i.v. (jugular vein), mean±SEM; for Inhibitory rate on the contraction caused by the stimulation of the central cut end, 2 min.: * p<0.05; for Inhibitory rate on the contraction caused by the stimulation of the central cut end, 4 min. / Inhibitory rate on the contraction caused by the stimulation of the central cut end, 20 min.: * p<0.05, ** <0.01; for Inhibitory rate on the contraction caused by the stimulation of the central cut end, 10 min.: ** <0.01; for Effect on contractions by stimulation of central cut end compared with peripheral cut end: 5 mg/kg i.v., rat
Text: as §1, §2, §3

| SMILES | Inhibitory rate on the contraction caused by the stimulation of the peripheral cut end, 2 min. [1] [%] | Inhibitory rate on the contraction caused by the stimulation of the peripheral cut end, 4 min. [1] [%] | Inhibitory rate on the contraction caused by the stimulation of the peripheral cut end, 10 min. [1] [%] | Inhibitory rate on the contraction caused by the stimulation of the peripheral cut end, 20 min. [1] [%] | ED50 [2] [mg/kg] | Potency on frequency of rhythmic bladder contractions relative to inaperisone hydrochloride (Compound A) [2] | Inhibitory effect on spinal reflex compared with Compound A [3] | ED50 [3] [mg/kg] | Inhibitory rate, exploratory behavior (exploratory behavior) [%] | Inhibitory effect on exploratory behavior compared with Compound A (exploratory behavior) | Separation of effect on micturition reflex from side effects (central depression, inhibition of spinal reflex) and toxicity, in comparison with Compound A [4] | LD50 at 168 h (in vivo) [mg/kg] | Acute toxicity compared with Compound A (Male ddY mice) | Inhibitory rate on the contraction caused by the stimulation of the central cut end, 2 min. [5] [%] | Inhibitory rate on the contraction caused by the stimulation of the central cut end, 4 min. [5] [%] | Inhibitory rate on the contraction caused by the stimulation of the central cut end, 10 min. [5] [%] | Inhibitory rate on the contraction caused by the stimulation of the central cut end, 20 min. [5] [%] | Effect on contractions by stimulation of central cut end compared with peripheral cut end [5] | Effect on the amplitude of contraction [2] |
| --- | --- | --- | --- | --- | --- | --- | --- | --- | --- | --- | --- | --- | --- | --- | --- | --- | --- | --- | --- |
| Fc1cccc2c1CCC(CCN1CCCC1)=C2 [Ex. 1, 1-[2-(5-fluoro-3,4-dihydro-2-naphthalenyl)ethyl]-pyrrolidine] | 4.4 ± 4.4 | 3.4 ± 4.4 | 3.2 ± 7.5 | 9.6 ± 8.6 | 4.3 | about 8 times more potent | much weaker than that of Compound A | > 10 | 16.2 | less potent than that of Compound A | extremely separated from side effects | 556 | also lower than that of Compound A | 26.3 ± 10.0 | 27.6 ± 5.6 | 36.8 ± 10.1 | 44.1 ± 5.8 | more potent than those on the contractions induced by the stimulation of peripheral cut end | – |
| Cc1cc2c(cc1C)CCC(CCN1CCCC1)=C2 [Ex. 2, 1-[2-(3,4-dihydro-6,7-dimethyl-2-naphthalenyl)ethyl]-pyrrolidine] | 0.4 ± 5.2 | 16.3 ± 7.0 | 13.7 ± 4.5 | 19.0 ± 7.5 | 4.4 | about 8 times more potent | much weaker than that of Compound A | > 8 | 0 | less potent than that of Compound A | extremely separated from side effects | 620 | also lower than that of Compound A | 13.3 ± 5.1 | 17.7 ± 2.8 | 25.6 ± 3.7 | 24.9 ± 4.1 | more potent than those on the contractions induced by the stimulation of peripheral cut end | suppressed the amplitude of contraction |
| Cc1cc2c(cc1C)CCC(CCN1CCCCC1)=C2 [Ex. 43, 1-[2-(3,4-dihydro-6,7-dimethyl-2-naphthalenyl)ethyl]piperidine] | 2.4 ± 3.3 | 5.8 ± 6.3 | 6.3 ± 8.1 | 17.2 ± 12.2 | 11.1 | ~3 times more potent | nearly equal to that of Compound A | 3.82 | 20.0 | almost equal to that of Compound A | extremely separated from side effects | 1040 | about twice lower than that of Compound A | 6.0 ± 10.8 | 22.8 ± 9.7 | 28.3 ± 4.0 | 37.3 ± 5.0 | more potent than those on the contractions induced by the stimulation of peripheral cut end | – |

— patent US5847159A, “1-[ω-(3,4-dihydro-2-naphthalenyl)alkyl]-cyclic amine derivatives, process for preparing the same, and pharmaceutical composition containing the same” (priority 1995, dated 1998)
